Here are results for 21 compounds from PubChem BioAssay AID192 (DTP/NCI, 2004).

Several values for one entry are separate records, joined by “and”; a condition that tells them apart may be missing. Equal entries are not always repeated. Inconclusive results and toxic doses are left out.

In this test the test system is BDF1 mice, B16 melanoma ip, median survival T/C. Kind of test: NCI In Vivo Anticancer Drug Screen. Data for tumor model B16 Melanoma (intraperitoneal) in B6D2F1 (BDF1) mice. The settings on record: endpoint: median survival time, higher = longer survival. Put shortly: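 Vehicle-treated animals serve as the reference (C); treated animals (T) are scored for survival or tumor size after tumor transplantation.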

The mark [1] stands for this setting: dose: 25.0 mg/kg/injection, schedule: Q01DX009 (ip), vehicle: other.
Setting [2] is: dose: 50.0 mg/kg/injection, schedule: Q01DX009 (ip), vehicle: other.
Setting [3] is: dose: 50.0 mg/kg/injection, schedule: Q01DX009 (ip), vehicle: Klucel (hydroxypropylcellulose) (HPC).
Where [4] appears, read: dose: 200.0 mg/kg/injection, schedule: Q04DX003 (ip), vehicle: Klucel (hydroxypropylcellulose) (HPC).
The mark [5] stands for this setting: dose: 400.0 mg/kg/injection, schedule: Q04DX003 (ip), vehicle: Klucel (hydroxypropylcellulose) (HPC).
The mark [6] stands for this setting: dose: 6.25 mg/kg/injection, schedule: Q01DX009 (ip), vehicle: saline.
The mark [7] stands for this setting: dose: 12.5 mg/kg/injection, schedule: Q01DX009 (ip), vehicle: saline.
Where [8] appears, read: dose: 25.0 mg/kg/injection, schedule: Q01DX009 (ip), vehicle: saline.
Where [9] appears, read: dose: 100.0 mg/kg/injection, schedule: Q01DX009 (ip), vehicle: Klucel (hydroxypropylcellulose) (HPC).
[10] abbreviates: dose: 200.0 mg/kg/injection, schedule: Q01DX009 (ip), vehicle: Klucel (hydroxypropylcellulose) (HPC).
Where [11] appears, read: dose: 100.0 mg/kg/injection, schedule: Q01DX009 (ip), vehicle: saline with Tween-80.

As for `COc1cc2ccc(/C=N/NC(N)=S)cc2cc1OC`, the T/C is, setting by setting: under setting [1], 117 % of control; under setting [2], 108 % of control; (dose: 100.0 mg/kg/injection, schedule: Q01DX009 (ip), vehicle: other) 109 % of control; (dose: 200.0 mg/kg/injection, schedule: Q01DX009 (ip), vehicle: other) 96 % of control.
Regarding `COC1C(CO)OC(n2cnc3c(=S)nc(N)[nH]c32)C1O` (centres undefined), the T/C is 112 % of control (dose: 12.5 mg/kg/injection, schedule: Q01DX009 (ip), vehicle: Klucel (hydroxypropylcellulose) (HPC)); 103 % of control (dose: 25.0 mg/kg/injection, schedule: Q01DX009 (ip), vehicle: Klucel (hydroxypropylcellulose) (HPC)); 108 % of control under setting [3].
As to `CC(=O)Nc1ccc(OC(=O)Nc2ccccc2Cl)cc1`, the T/C is, setting by setting: (dose: 100.0 mg/kg/injection, schedule: Q04DX003 (ip), vehicle: Klucel (hydroxypropylcellulose) (HPC)) 93 % of control; under setting [4], 113 % of control; under setting [5], 106 % of control.
As to `CNCCNc1ccc(NCCNC)c2c1C(=O)c1ccccc1C2=O`, the T/C was 156 % of control (dose: 2.0 mg/kg/injection, schedule: Q01DX009 (ip), vehicle: acid diluted with saline); 230 % of control (dose: 4.0 mg/kg/injection, schedule: Q01DX009 (ip), vehicle: acid diluted with saline); 231 % of control (dose: 8.0 mg/kg/injection, schedule: Q01DX009 (ip), vehicle: acid diluted with saline).
As to `CCOC(=O)C(Cc1ccc(O)cc1)NP(=O)(OCCCl)OCCCl` (centres undefined), the T/C is, setting by setting: under setting [4], 86 % of control; under setting [5], 91 % of control.
As to `CC[N+](CC)(CC)CC.N#C/C([SH2+])=C(/[SH2+])C#N.N#C/C([SH2+])=C(/[SH2+])C#N.[Cu+2]`, the T/C was 92 % of control (dose: 12.5 mg/kg/injection, schedule: Q04DX003 (ip), vehicle: Klucel (hydroxypropylcellulose) (HPC)) and 89 % of control (dose: 25.0 mg/kg/injection, schedule: Q04DX003 (ip), vehicle: Klucel (hydroxypropylcellulose) (HPC)).
On to `O=S(=O)(O)c1ccc(/C2=c3\cc/c([n-]3)=C(\c3ccc(S(=O)(=O)O)cc3)c3ccc([n-]3)/C(c3ccc(S(=O)(=O)O)cc3)=c3/cc/c([n-]3)=C(\c3ccc(S(=O)(=O)O)cc3)c3ccc2[n-]3)cc1.[Co]`, for which the T/C by setting is: (dose: 3.13 mg/kg/injection, schedule: Q01DX009 (ip), vehicle: saline) 111 % of control; under setting [6], 107 % of control; under setting [7], 108 % of control; under setting [8], 101 % of control.
Turning to `C=CCOCC(O)CNCCCOC` (centres undefined), the T/C is 102 % of control under setting [6], 98 % of control under setting [7] and 98 % of control under setting [8].
As for `Cn1c(O)c(C=N)c(=O)n(C)c1=O`, the T/C by setting is: under setting [1], 111 % of control; under setting [2], 102 % of control.
In the case of `O=C1CCCNc2ccccc21`, the T/C is 100 % of control (dose: 25.0 mg/kg/injection, schedule: Q04DX003 (ip), vehicle: saline with Tween-80); 102 % of control (dose: 50.0 mg/kg/injection, schedule: Q04DX003 (ip), vehicle: saline with Tween-80); 114 % of control (dose: 75.0 mg/kg/injection, schedule: Q04DX003 (ip), vehicle: saline with Tween-80); 101 % of control (dose: 100.0 mg/kg/injection, schedule: Q04DX003 (ip), vehicle: saline with Tween-80); 103 % of control (dose: 200.0 mg/kg/injection, schedule: Q04DX003 (ip), vehicle: saline with Tween-80); 90 % of control (dose: 400.0 mg/kg/injection, schedule: Q04DX003 (ip), vehicle: saline with Tween-80).
With `ClC(c1ccccc1)c1ccc(Br)cc1` (centres undefined), the T/C runs as follows: under setting [3], 105 % of control; under setting [9], 97 % of control; under setting [10], 88 % of control.
For `O=C(O)CCNCCO`, the T/C (dose: 400.0 mg/kg/injection, schedule: Q01DX009 (ip), vehicle: saline) was 97 % of control.
As for `COc1cc(NS(=O)(=O)c2ccc(C(C)=O)cc2)nc(OC)n1`, the T/C under setting [9] is 100 % of control; the T/C under setting [10] was 100 % of control; the T/C (dose: 400.0 mg/kg/injection, schedule: Q01DX009 (ip), vehicle: Klucel (hydroxypropylcellulose) (HPC)) is 93 % of control.
As to `COc1cccc(NC(=O)Nc2ccccc2Cl)c1`, the T/C is, setting by setting: (dose: 100.0 mg/kg/injection, schedule: Q01DX009 (ip), vehicle: gum acacia) 96 % of control; (dose: 200.0 mg/kg/injection, schedule: Q01DX009 (ip), vehicle: gum acacia) 96 % of control; (dose: 400.0 mg/kg/injection, schedule: Q01DX009 (ip), vehicle: gum acacia) 88 % of control.
For `CC(C)c1ccc(NC(=O)Nc2cccc3ccccc23)cc1`, the T/C reads like this: under setting [9], 100 % of control; under setting [10], 97 % of control.
For `CCNCCCOCC`, the T/C runs as follows: (dose: 12.5 mg/kg/injection, schedule: Q04DX003 (ip), vehicle: saline) 104 % of control; (dose: 25.0 mg/kg/injection, schedule: Q04DX003 (ip), vehicle: saline) 102 % of control; (dose: 50.0 mg/kg/injection, schedule: Q04DX003 (ip), vehicle: saline) 102 % of control.
With `O=C(CBr)c1ccc(I)cc1`, the T/C reads like this: (dose: 1.25 mg/kg/injection, schedule: Q01DX009 (ip), vehicle: saline with Tween-80) 90 % of control; (dose: 2.5 mg/kg/injection, schedule: Q01DX009 (ip), vehicle: saline with Tween-80) 102 % of control; (dose: 5.0 mg/kg/injection, schedule: Q01DX009 (ip), vehicle: saline with Tween-80) 95 % of control; (dose: 10.0 mg/kg/injection, schedule: Q01DX009 (ip), vehicle: saline with Tween-80) 95 % of control; (dose: 20.0 mg/kg/injection, schedule: Q01DX009 (ip), vehicle: saline with Tween-80) 88 % of control.
With `CCCC(C)C(C(=O)O)c1ccccc1` (centres undefined), the T/C by setting is: under setting [11], 110 % of control; (dose: 200.0 mg/kg/injection, schedule: Q01DX009 (ip), vehicle: saline with Tween-80) 106 % of control; (dose: 300.0 mg/kg/injection, schedule: Q01DX009 (ip), vehicle: saline with Tween-80) 91 % of control.
As to `O=c1[nH]c2cc(Cl)ccc2c(CCl)c1Cl`, the T/C is 88 % of control and 95 % of control (dose: 25.0 mg/kg/injection, schedule: Q01DX009 (ip), vehicle: saline with Tween-80); 88 % of control and 95 % of control (dose: 50.0 mg/kg/injection, schedule: Q01DX009 (ip), vehicle: saline with Tween-80); 93 % of control and 100 % of control under setting [11].
On to `Nc1ccc(Nc2ccc([N+](=O)[O-])cc2[N+](=O)[O-])cc1`, for which the T/C (dose: 50.0 mg/kg/injection, schedule: Q04DX003 (ip), vehicle: gum acacia) is 104 % of control; the T/C (dose: 100.0 mg/kg/injection, schedule: Q04DX003 (ip), vehicle: gum acacia) is 97 % of control; the T/C (dose: 200.0 mg/kg/injection, schedule: Q04DX003 (ip), vehicle: gum acacia) was 95 % of control.
Regarding `O=C(O)c1ccc(C(=O)O)c(C(=O)O)c1.[NH-]C1CCCCC1[NH-].[Pt+2]`, the T/C is 151 % of control (dose: 0.19 mg/kg/injection, schedule: Q01DX009 (ip), vehicle: sodium bicarbonate); 118 % of control (dose: 0.39 mg/kg/injection, schedule: Q01DX009 (ip), vehicle: sodium bicarbonate); 116 % of control (dose: 0.4 mg/kg/injection, schedule: Q01DX009 (ip), vehicle: sodium bicarbonate); 185 % of control (dose: 0.78 mg/kg/injection, schedule: Q01DX009 (ip), vehicle: sodium bicarbonate); 165 % of control (dose: 0.8 mg/kg/injection, schedule: Q01DX009 (ip), vehicle: other); 181 % of control (dose: 1.56 mg/kg/injection, schedule: Q01DX009 (ip), vehicle: other). Also, the T/C (dose: 1.56 mg/kg/injection, schedule: Q01DX009 (ip), vehicle: sodium bicarbonate) was 158 % of control and 159 % of control; the T/C (dose: 1.6 mg/kg/injection, schedule: Q01DX009 (ip), vehicle: other) is 157 % of control; the T/C (dose: 1.6 mg/kg/injection, schedule: Q01DX009 (ip), vehicle: sodium bicarbonate) is 161 % of control; the T/C (dose: 3.12 mg/kg/injection, schedule: Q01DX009 (ip), vehicle: other) is 169 % of control; the T/C (dose: 3.2 mg/kg/injection, schedule: Q01DX009 (ip), vehicle: sodium bicarbonate) was 168 % of control; the T/C (dose: 4.8 mg/kg/injection, schedule: Q01DX009 (ip), vehicle: sodium bicarbonate) was 169 % of control. The T/C (dose: 6.25 mg/kg/injection, schedule: Q01DX009 (ip), vehicle: other) was 171 % of control.
